Measured values reported in patent publication US10246429B2, “Vinyl fluoride cyclopropyl fused thiazin-2-amine compounds as beta-secretase inhibitors and methods of use” (AMGEN INC., priority 2015, dated 2019).

Assays:
BACE1 [1] = biological target: T1, BACE1 (Homo sapiens (Human), UniProt P56817); test: BACE1 cell assay; format: cell-based
Target sequence in this assay (P56817 46-501, species assumed): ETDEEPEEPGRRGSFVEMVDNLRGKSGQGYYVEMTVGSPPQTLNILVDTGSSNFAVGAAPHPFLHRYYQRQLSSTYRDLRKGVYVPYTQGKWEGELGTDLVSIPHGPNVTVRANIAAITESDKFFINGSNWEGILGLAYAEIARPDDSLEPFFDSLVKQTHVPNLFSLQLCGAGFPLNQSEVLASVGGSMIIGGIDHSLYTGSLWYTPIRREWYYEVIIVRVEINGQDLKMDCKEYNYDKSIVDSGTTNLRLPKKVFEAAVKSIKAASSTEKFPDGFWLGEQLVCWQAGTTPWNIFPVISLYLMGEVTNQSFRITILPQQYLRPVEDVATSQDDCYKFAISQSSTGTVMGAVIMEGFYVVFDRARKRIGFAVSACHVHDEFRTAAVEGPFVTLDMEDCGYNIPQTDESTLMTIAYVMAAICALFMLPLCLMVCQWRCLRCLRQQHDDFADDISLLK

BACE1 [2] = biological target: T1, BACE1; test: In vitro enzymatic BACE1 FRET assay; format: biochemical; settings: read-out: IC50 IP (μM) BACE1 Enzyme
Target sequence in this assay (P56817 46-501): as the sequence (P56817 46-501, species assumed) above
From the text: (§1) In Vitro Enzymatic BACE1 and BACE2 FRET (Fluorescence Resonance Energy Transfer) Assays (Enzyme Assay Data in Table 1)

Cathepsin D (CatD) = Cathepsin D (CatD) (Homo sapiens (Human), UniProt P07339); test: CatD assay; format: biochemical; settings: read-out: IC50 IP (μM) CatD
Sequence of Cathepsin D (CatD) (P07339 65-412, species assumed): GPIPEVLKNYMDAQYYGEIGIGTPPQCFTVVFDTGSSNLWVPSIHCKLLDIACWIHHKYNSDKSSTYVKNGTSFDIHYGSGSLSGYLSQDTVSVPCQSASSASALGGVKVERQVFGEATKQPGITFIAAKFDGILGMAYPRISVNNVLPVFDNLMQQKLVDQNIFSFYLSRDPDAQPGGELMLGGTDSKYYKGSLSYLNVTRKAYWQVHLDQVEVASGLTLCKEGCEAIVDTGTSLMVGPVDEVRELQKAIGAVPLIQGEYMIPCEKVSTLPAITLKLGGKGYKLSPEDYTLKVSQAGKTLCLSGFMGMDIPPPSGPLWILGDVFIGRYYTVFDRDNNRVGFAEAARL

BACE2 = BACE2 (Homo sapiens (Human), UniProt Q9Y5Z0); test: In vitro enzymatic BACE2 FRET assay; format: biochemical; settings: read-out: IC50 IP (μM) BACE2 Enzyme
Sequence of BACE2 (Q9Y5Z0 63-518): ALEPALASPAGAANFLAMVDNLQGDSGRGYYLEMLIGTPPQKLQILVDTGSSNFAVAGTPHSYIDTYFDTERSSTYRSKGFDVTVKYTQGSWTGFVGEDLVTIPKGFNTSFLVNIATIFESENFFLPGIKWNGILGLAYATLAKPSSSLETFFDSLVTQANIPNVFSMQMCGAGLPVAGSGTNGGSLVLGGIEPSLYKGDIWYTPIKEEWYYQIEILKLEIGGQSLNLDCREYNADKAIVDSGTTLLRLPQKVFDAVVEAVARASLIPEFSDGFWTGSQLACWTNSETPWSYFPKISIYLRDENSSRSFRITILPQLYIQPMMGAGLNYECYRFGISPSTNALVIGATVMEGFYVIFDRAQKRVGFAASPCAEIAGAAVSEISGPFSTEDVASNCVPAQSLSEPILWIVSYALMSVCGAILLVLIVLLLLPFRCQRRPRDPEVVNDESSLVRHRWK
From the text: as §1

[3] = read-out: IC50 IP (μM) BACE1 Cell

C[C@H]1CCN1C(=O)[C@]12C[C@H]1[C@@](C)(c1cc(/C=C(\F)c3ccc(Cl)cn3)ccc1F)N=C(N)S2 (single isomer, unassigned) [Example 119]
IC50 (BACE1 [1]; [3]): 0.00406 µM
IC50 (BACE1 [2]): 0.0034 µM
IC50 (Cathepsin D (CatD)): 42.3 µM
IC50 (BACE2): 0.00752 µM

COC[C@]12C[C@H]1[C@@](CF)(c1cc(/C=C(\F)c3ccc(Cl)cn3)ccc1F)N=C(N)S2 [Example 100, (1S,5S,6S)-5-(5-((Z)-2-(5-chloropyridin-2-yl)-2-fluorovinyl)-2-fluorophenyl)-5-(fluoromethyl)-1-(methoxymethyl)-2-thia-4-azabicyclo[4.1.0]hept-3-en-3-amine]
IC50 (BACE1 [1]; [3]): 0.26 µM
IC50 (BACE1 [2]): 0.0228 µM
IC50 (Cathepsin D (CatD)): 933 µM
IC50 (BACE2): 0.0421 µM

COC[C@]12C[C@H]1[C@@](CF)(c1cc(/C=C(/F)c3ccc(Cl)cn3)ccc1F)N=C(N)S2 [Example 101, (1S,5S,6S)-5-(5-((E)-2-(5-chloropyridin-2-yl)-2-fluorovinyl)-2-fluorophenyl)-5-(fluoromethyl)-1-(methoxymethyl)-2-thia-4-azabicyclo[4.1.0]hept-3-en-3-amine]
IC50 (BACE1 [1]; [3]): 1.6 µM
IC50 (BACE1 [2]): 0.303 µM
IC50 (Cathepsin D (CatD)): 154 µM
IC50 (BACE2): 0.281 µM

COc1ccc(/C(F)=C/c2ccc(F)c([C@@]3(C)N=C(N)S[C@@]4(C(=O)N5CCCC5)C[C@H]43)c2)nc1 [Example 104, ((1S,5S,6S)-3-amino-5-(2-fluoro-5-((Z)-2-fluoro-2-(5-methoxypyridin-2-yl)vinyl)phenyl)-5-methyl-2-thia-4-azabicyclo[4.1.0]hept-3-en-1-yl)(pyrrolidin-1-yl)methanone]
IC50 (BACE1 [1]; [3]): 0.0221 µM
IC50 (BACE1 [2]): 0.0226 µM
IC50 (Cathepsin D (CatD)): 185 µM
IC50 (BACE2): 0.144 µM

C[C@]1(c2cc(/C=C(\F)c3ccc(C#N)cn3)ccc2F)N=C(N)S[C@@]2(C(=O)N3CCCC3)C[C@H]21 [Example 107, 6-((Z)-2-(3-((1S,5S,6S)-3-amino-5-methyl-1-(pyrrolidine-1-carbonyl)-2-thia-4-azabicyclo[4.1.0]hept-3-en-5-yl)-4-fluorophenyl)-1-fluorovinyl)nicotinonitrile]
IC50 (BACE1 [1]; [3]): 0.00384 µM
IC50 (BACE1 [2]): 0.000673 µM
IC50 (Cathepsin D (CatD)): 396 µM

CN(C)C(=O)[C@]12C[C@H]1[C@@](C)(c1cc(/C=C(\F)c3ccc(Br)cn3)ccc1F)N=C(N)S2 [Example 108, (1S,5S,6S)-3-amino-5-(5-((Z)-2-(5-bromopyridin-2-yl)-2-fluorovinyl)-2-fluorophenyl)-N,N,5-trimethyl-2-thia-4-azabicyclo[4.1.0]hept-3-ene-1-carboxamide]
IC50 (BACE1 [1]; [3]): 0.00853 µM
IC50 (BACE1 [2]): 0.00199 µM
IC50 (Cathepsin D (CatD)): 519 µM
IC50 (BACE2): 0.00292 µM

CN(C)C(=O)[C@]12C[C@H]1[C@@](C)(c1cc(/C=C(\F)c3ccc(C#CC4CC4)cn3)ccc1F)N=C(N)S2 [Example 109, (1S,5S,6S)-3-amino-5-(5-((Z)-2-(5-(cyclopropylethynyl)pyridin-2-yl)-2-fluorovinyl)-2-fluorophenyl)-N,N,5-trimethyl-2-thia-4-azabicyclo[4.1.0]hept-3-ene-1-carboxamide]
IC50 (BACE1 [1]; [3]): 0.223 µM
IC50 (BACE1 [2]): 0.00849 µM
IC50 (Cathepsin D (CatD)): 138 µM
IC50 (BACE2): 0.0615 µM

C#Cc1ccc(/C(F)=C/c2ccc(F)c([C@@]3(C)N=C(N)S[C@@]4(C(=O)N(C)C)C[C@H]43)c2)nc1 [Example 110, (1S,5S,6S)-3-amino-5-(5-((Z)-2-(5-ethynylpyridin-2-yl)-2-fluorovinyl)-2-fluorophenyl)-N,N,5-trimethyl-2-thia-4-azabicyclo[4.1.0]hept-3-ene-1-carboxamide]
IC50 (BACE1 [1]; [3]): 0.0127 µM
IC50 (BACE1 [2]): 0.00324 µM
IC50 (Cathepsin D (CatD)): 403 µM
IC50 (BACE2): 0.0144 µM

C[C@]1(c2cc(/C=C(\F)c3ccc(Cl)cn3)ccc2F)N=C(N)S[C@@]2(CC#N)C[C@H]21 [Example 114, 2-((1R,5S,6S)-3-amino-5-(5-((Z)-2-(5-chloropyridin-2-yl)-2-fluorovinyl)-2-fluorophenyl)-5-methyl-2-thia-4-azabicyclo[4.1.0]hept-3-en-1-yl)acetonitrile]
IC50 (BACE1 [1]; [3]): 0.446 µM
IC50 (BACE1 [2]): 0.021 µM
IC50 (Cathepsin D (CatD)): 668 µM
IC50 (BACE2): 0.0555 µM

CC1CCN1C(=O)[C@]12C[C@H]1[C@@](C)(c1cc(/C=C(\F)c3ccc(Cl)cn3)ccc1F)N=C(N)S2 (stereo partly drawn) [Example 116, ((1S,5S,6S)-3-amino-5-(5-((Z)-2-(5-chloropyridin-2-yl)-2-fluorovinyl)-2-fluorophenyl)-5-methyl-2-thia-4-azabicyclo[4.1.0]hept-3-en-1-yl)(2-methylazetidin-1-yl)methanone]
IC50 (BACE1 [1]; [3]): 0.00929 µM
IC50 (BACE1 [2]): 0.00623 µM
IC50 (Cathepsin D (CatD)): 107 µM
IC50 (BACE2): 0.0119 µM

C[C@]1(c2cc(/C=C(\F)c3ccc(Cl)cn3)ccc2F)N=C(N)S[C@@]2(C(=O)Nc3ccccc3)C[C@H]21 [Example 118, (1S,5S,6S)-3-amino-5-(5-((Z)-2-(5-chloropyridin-2-yl)-2-fluorovinyl)-2-fluorophenyl)-5-methyl-N-phenyl-2-thia-4-azabicyclo[4.1.0]hept-3-ene-1-carboxamide]
IC50 (BACE1 [1]; [3]): 0.291 µM
IC50 (BACE1 [2]): 0.0299 µM
IC50 (Cathepsin D (CatD)): 13.4 µM
IC50 (BACE2): 0.047 µM

C[C@@H]1CCN1C(=O)[C@]12C[C@H]1[C@@](C)(c1cc(/C=C(\F)c3ccc(Cl)cn3)ccc1F)N=C(N)S2 [Example 120, ((1S,5S,6S)-3-amino-5-(5-((Z)-2-(5-chloropyridin-2-yl)-2-fluorovinyl)-2-fluorophenyl)-5-methyl-2-thia-4-azabicyclo[4.1.0]hept-3-en-1-yl)((R)-2-methylazetidin-1-yl)methanone]
IC50 (BACE1 [1]; [3]): 0.0267 µM
IC50 (BACE1 [2]): 0.00275 µM
IC50 (Cathepsin D (CatD)): 132 µM
IC50 (BACE2): 0.0108 µM

C[C@]1(c2cc(/C=C(\F)c3ccc(C#N)cn3)ccc2F)N=C(N)S[C@@]2(C(=O)N3Cc4ccccc4C3)C[C@H]21 [Example 129, 6-((Z)-2-(3-((1S,5S,6S)-3-amino-1-(isoindoline-2-carbonyl)-5-methyl-2-thia-4-azabicyclo[4.1.0]hept-3-en-5-yl)-4-fluorophenyl)-1-fluorovinyl)nicotinonitrile bis(2,2,2-trifluoroacetate)]
IC50 (BACE1 [1]; [3]): 0.0165 µM
IC50 (BACE1 [2]): 0.00117 µM
IC50 (Cathepsin D (CatD)): 133 µM
IC50 (BACE2): 0.0311 µM

COC(=O)[C@H]1CCCN1C(=O)[C@]12C[C@H]1[C@@](C)(c1cc(/C=C(\F)c3ccc(C#N)cn3)ccc1F)N=C(N)S2 [Example 130, (R)-methyl 1-((1S,5S,6S)-3-amino-5-(5-((Z)-2-(5-cyanopyridin-2-yl)-2-fluorovinyl)-2-fluorophenyl)-5-methyl-2-thia-4-azabicyclo[4.1.0]hept-3-ene-1-carbonyl)pyrrolidine-2-carboxylate bis(2,2,2-trifluoroacetate)]
IC50 (BACE1 [1]; [3]): 0.00747 µM
IC50 (BACE1 [2]): 0.0034 µM
IC50 (Cathepsin D (CatD)): 120 µM
IC50 (BACE2): 0.121 µM

CC1(C)CC2CC(C)(CN2C(=O)[C@]23C[C@H]2[C@@](C)(c2cc(/C=C(\F)c4ccc(C#N)cn4)ccc2F)N=C(N)S3)C1 (stereo partly drawn) [Example 136, 6-((Z)-2-(3-((1S,5S,6S)-3-amino-5-methyl-1-(1,3,3-trimethyl-6-azabicyclo[3.2.1]octane-6-carbonyl)-2-thia-4-azabicyclo[4.1.0]hept-3-en-5-yl)-4-fluorophenyl)-1-fluorovinyl)nicotinonitrile]
IC50 (BACE1 [1]; [3]): 0.0154 µM
IC50 (BACE1 [2]): 0.00582 µM
IC50 (Cathepsin D (CatD)): 4.18 µM
IC50 (BACE2): 0.0363 µM

CN(C)C(=O)[C@]12C[C@H]1[C@@](C)(c1cc(/C=C(\F)c3cnc(C#CC4CC4)cn3)ccc1F)N=C(N)S2 [Example 159, (1S,5S,6S)-3-amino-5-(5-((Z)-2-(5-(cyclopropylethynyl)pyrazin-2-yl)-2-fluorovinyl)-2-fluorophenyl)-N,N,5-trimethyl-2-thia-4-azabicyclo[4.1.0]hept-3-ene-1-carboxamide]
IC50 (BACE1 [1]): 0.0166 µM
IC50 (BACE1 [2]): 0.000856 µM
IC50 (Cathepsin D (CatD)): 71.9 µM

COC[C@]12C[C@H]1[C@@](C)(c1cc(/C=C(\F)c3cc4c(cn3)OCCO4)ccc1F)N=C(N)S2 [Example 305, (1S,5S,6S)-5-(5-((Z)-2-(2,3-dihydro-[1,4]dioxino[2,3-c]pyridin-7-yl)-2-fluorovinyl)-2-fluorophenyl)-1-(methoxymethyl)-5-methyl-2-thia-4-azabicyclo[4.1.0]hept-3-en-3-amine]
IC50 (BACE1 [1]; [3]): 0.793 µM
IC50 (BACE1 [2]): 1.76 µM
IC50 (BACE2): 0.373 µM

C[C@]1(c2cc(/C=C(\F)c3ccc(C#N)cn3)ccc2F)N=C(N)S[C@@]2(C(=O)N3CCO[C@H]4C[C@H]43)C[C@H]21 [Example 311, 6-((Z)-2-(3-((1S,5S,6S)-3-amino-1-((1S,6R)-2-oxa-5-azabicyclo[4.1.0]heptane-5-carbonyl)-5-methyl-2-thia-4-azabicyclo[4.1.0]hept-3-en-5-yl)-4-fluorophenyl)-1-fluorovinyl)nicotinonitrile]
IC50 (BACE1 [1]; [3]): 0.0015 µM
IC50 (BACE1 [2]): 0.0018 µM
IC50 (BACE2): 0.048 µM

C[C@]1(c2cc(/C=C(\F)c3ccc(C#N)cn3)ccc2F)N=C(N)S[C@@]2(C(=O)N3CCCC(F)(F)C3)C[C@H]21 [Example 324, 6-((Z)-2-(3-((1S,5S,6S)-3-amino-1-(3,3-difluoropiperidine-1-carbonyl)-5-methyl-2-thia-4-azabicyclo[4.1.0]hept-3-en-5-yl)-4-fluorophenyl)-1-fluorovinyl)nicotinonitrile]
IC50 (BACE1 [1]; [3]): 0.0031 µM
IC50 (BACE1 [2]): 0.0011 µM
IC50 (BACE2): 0.019 µM

C[C@]1(c2cc(/C=C(\F)c3ccc(C#N)cn3)ccc2F)N=C(N)S[C@@]2(C(=O)N3CC[C@@H](O)C3)C[C@H]21 [Example 333, 6-((Z)-2-(3-((1S,5S,6S)-3-amino-1-((R)-3-hydroxypyrrolidine-1-carbonyl)-5-methyl-2-thia-4-azabicyclo[4.1.0]hept-3-en-5-yl)-4-fluorophenyl)-1-fluorovinyl)nicotinonitrile]
IC50 (BACE1 [1]; [3]): 0.0007 µM
IC50 (BACE1 [2]): 0.0008 µM
IC50 (BACE2): 0.053 µM

C#Cc1cnc(/C(F)=C/c2ccc(F)c([C@@]3(C)N=C(N)S[C@@]4(C(=O)N5CCOCC5)C[C@H]43)c2)cn1 [Example 350, ((1S,5S,6S)-3-amino-5-(5-((Z)-2-(5-ethynylpyrazin-2-yl)-2-fluorovinyl)-2-fluorophenyl)-5-methyl-2-thia-4-azabicyclo[4.1.0]hept-3-en-1-yl)(morpholino)methanone]
IC50 (BACE1 [1]; [3]): 0.04 µM
IC50 (BACE1 [2]): 0.004 µM
IC50 (BACE2): 0.046 µM
